In paper PMC12557367, ““Precision on Two Wheels”–Structural Refinement of ^64Cu- and ^68Ga-Labeled Bicyclic Peptides Targeting Nectin‑4 for Improved Tumor Imaging: From Preclinical Development to First-in-Human Application” (Journal of Medicinal Chemistry, 2025):
Each block holds one compound with its values, some of them ahead of it. Numbered stars: 1 amine (or outer) side, 2 acyl side, 3 side chain; on linkers, the order of the positions; unused ones are H or OH. Bridge positions count the residues as written; N and C are the ends. Square brackets hold non-standard residues; d marks the D form. Peptide text beside a SMILES is read from it. * marks the point of attachment. DOTA = O=C(O)CN1CCN(CC(=O)O)CCN(CC(=O)*)CCN(CC(=O)O)CC1; TATA = O=C(CC[*:1])N1CN(C(=O)CC[*:2])CN(C(=O)CC[*:3])C1; X1 = O=C(O)CN1CCN(CC(=O)O)CCN([C@H](CCC(=O)*)C(=O)O)CC1; 1Nal = N[C@@H](Cc1cccc2ccccc12)C(=O)O; 2Nal = N[C@@H](Cc1ccc2ccccc2c1)C(=O)O; Hyp = O=C(O)[C@@H]1C[C@@H](O)CN1; hArg = N=C(N)NCCCC[C@H](N)C(=O)O; hSer = N[C@@H](CCO)C(=O)O; Nle = CCCC[C@H](N)C(=O)O

Assays:
[1] = target: T1, recombinant N-terminal Ig-like V domain of nectin-4 (Homo sapiens, UniProt Q96NY8); experiment: FA direct binding of probe 1a to Ig-like V domain
T1 construct: probe 1a to the N-terminal Ig-like V domain of nectin-4 (Acro Biosystems, NE4-H82Ea); purchased Acro Biosystems NE4-H82Ea
T1 sequence (Q96NY8 32-144 limits assumed): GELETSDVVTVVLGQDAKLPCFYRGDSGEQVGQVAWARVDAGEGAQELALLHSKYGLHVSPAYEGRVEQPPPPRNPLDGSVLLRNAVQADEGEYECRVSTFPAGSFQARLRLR
Text: For direct binding of probe 1a to the N-terminal Ig-like V domain of nectin-4 (Acro Biosystems, NE4-H82Ea), the same procedure as described previously was applied.

[2] = target: T2, recombinant human nectin-4 (Homo sapiens, UniProt Q96NY8); experiment: Fluorescence anisotropy (FA) direct binding of fluorescent probes; conditions: 1 nM probe
T2 construct: close to the value determined for the complete extracellular domain of nectin-4 (0.94 nM); purchased R&D Systems 2659-N4
T2 sequence (Q96NY8 32-349 limits assumed): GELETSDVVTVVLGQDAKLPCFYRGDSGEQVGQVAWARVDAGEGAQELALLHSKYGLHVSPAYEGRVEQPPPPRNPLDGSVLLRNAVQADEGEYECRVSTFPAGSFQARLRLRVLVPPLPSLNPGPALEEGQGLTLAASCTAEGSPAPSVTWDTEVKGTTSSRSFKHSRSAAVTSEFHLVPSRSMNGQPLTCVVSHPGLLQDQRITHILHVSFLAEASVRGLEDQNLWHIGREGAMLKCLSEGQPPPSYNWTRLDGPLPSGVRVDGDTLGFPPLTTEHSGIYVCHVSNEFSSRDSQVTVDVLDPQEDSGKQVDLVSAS
Text: For characterizing the binding affinity of the bicyclic peptides toward nectin-4, we envisaged a fluorescence anisotropy-based competitive binding assay. Mudd et al. also used such an assay for the development of the bicycle drug conjugate BT8009. Herein, the peptidic scaffold of BT8009 was used as a basis for the required fluorescent nectin-4-ligand (probe) with either 6-TAMRA (1a) or 6-FAM (1b) being attached at the N-terminal Cys residue. […] In this context, the binding of the probe to nectin-4 was started by the addition of nectin-4, followed by continuous fluorescence measurements over 20 min. It is worth noting that a slight initial increase in the FA values could be observed for both probes (FA values at <300 s in Figure S1); however, this putative time-dependent association appeared to be too fast to analyze it. […]
All measurements were conducted at 37 °C over 1200 s (interval of 37 s) using a Cytation 5 multimode microplate reader (BioTek Instruments, Software Gen 5) and black 96-well microplates (BRANDplates with F-bottom wells). […] The FA (r) was calculated by Gen 5 software from the measured parallel and perpendicular fluorescence intensities (I ∥ and I ⊥, respectively) according to eq using a G factor of 0.87 (preset value). r=I∥−G×I⊥/I∥+2G×I⊥ 1 […]

[3] = Chromatographic hydrophobicity index at immobilized artificial membrane (CHI IAM7.4) by HPLC; format: physicochemical; conditions: nonlabeled peptide, pH 7.4
Experimental: Consequently, the CHI IAM7.4 values indicate that unfavorable pharmacokinetic behavior due to nonspecific binding is not to be expected.
All commercial reagents and solvents were used without further purification, unless otherwise specified. […] The purity of compound 5, which bears selenomethionine, was lower due to the lability to oxidation (as discussed above). The HPLC-based determination of chromatographic hydrophobicity indices at an immobilized artificial membrane was performed as previously described according to the method developed by Valko et al.

HT-1376 cells = experiment: Saturation binding assay on intact cells; format: cell-based, human; conditions: intact HT-1376 cells, ±SD; for Kd: 60 min, PBS wash, apparent
Experimental: For the saturation binding assay, total and nonspecific binding were determined as described above using 10 different radioligand concentrations ([…]) prepared by serial 1:1 dilution. Plots of “total binding” = f(radioligand) were analyzed by nonlinear regressions using the model of “one site-total, accounting for ligand depletion” as implemented in GraphPad Prism, and Plots of “nonspecific binding” = f(radioligand) were analyzed by linear regressions.

[4] = format: in vitro ADME; conditions: 24 h
Experimental: Human plasma was collected as previously described. For assessing the stability in human plasma, 10 μL (10 MBq) of the labeling solution of [ ^ 64 Cu]-Cu-1e, [ ^ 64 Cu]-Cu-3a, or [ ^ 64 Cu]-Cu-4 were added to 90 μL of human plasma, and the mixture was incubated at 37 °C for up to 24 h. At distinct time points (1, 2, 4, and 24 h), an aliquot of 20 μL was withdrawn and diluted with 60 μL of a mixture named “Supersol” (composition as described above). This was followed by centrifugation at 16,100g for 2 min. The supernatant was analyzed by radio-HPLC (the same system as used for analyzing the ^64Cu-labelings).

[5] = target: T2, recombinant human nectin-4; experiment: FA-based competitive binding assay with probe 1a; conditions: for Hill coefficient n: competitive binding curve, variable slope
nectin-4 = target: nectin-4; design: method as in Duan et al.; conditions: SPR, buffer pH 4.0; ref Duan et al.; read-out: binding affinity; cited from earlier work

Structure (SMILES): CSCC[C@@H]1NC(=O)[C@@H]2CSCCC(=O)N3CN(CN(C3)C(=O)CCSC[C@H](NC(=O)c3ccc(C(=O)O)c(-c4c5ccc(=[N+](C)C)cc-5oc5cc(N(C)C)ccc45)c3)C(=O)N3CCC[C@H]3C(=O)N[C@@H](Cc3cccc4ccccc34)C(=O)N[C@H](CC(=O)O)C(=O)N2)C(=O)CCSC[C@@H](C(N)=O)NC(=O)[C@H](Cc2c[nH]c3ccccc23)NC(=O)[C@@H]2C[C@@H](O)CN2C(=O)[C@@H]2CCCN2C(=O)[C@H]([C@@H](C)O)NC(=O)[C@H](CO)NC(=O)[C@H](Cc2c[nH]c3ccccc23)NC(=O)[C@H](CC(=O)O)NC(=O)[C@H](CCCCNC(=N)N)NC1=O [1a]
Kd [1]: 1.3 nM
dynamic range (ΔFA = mA of bound probe – mA of free probe) [2]: 100 (±3) mA

Structure (SMILES): CSCC[C@@H]1NC(=O)[C@@H]2CSCCC(=O)N3CN(CN(C3)C(=O)CCSC[C@H](NC(=O)CC[C@H](C(=O)O)N3CCN(CC(=O)O)CCN(CC(=O)O)CC3)C(=O)N3CCC[C@H]3C(=O)N[C@@H](Cc3cccc4ccccc34)C(=O)N[C@H](CC(=O)O)C(=O)N2)C(=O)CCSC[C@@H](C(N)=O)NC(=O)[C@H](Cc2c[nH]c3ccccc23)NC(=O)[C@@H]2C[C@@H](O)CN2C(=O)[C@@H]2CCCN2C(=O)[C@H]([C@@H](C)O)NC(=O)[C@H](CO)NC(=O)[C@H](Cc2c[nH]c3ccccc23)NC(=O)[C@H](CC(=O)O)NC(=O)[C@H](CCCCNC(=N)N)NC1=O [1e]
CHI IAM7.4 [3]: 19.9
Kd (HT-1376 cells; ^64Cu-labeled ligand): 7.15 nM
B max (fmol/mg) (HT-1376 cells; ^64Cu-labeled ligand): 780 (±23.9) fmol/mg
Kd (HT-1376 cells; ^68Ga-labeled ligand): 8.7 nM
B max (fmol/mg) (HT-1376 cells; ^68Ga-labeled ligand): 1345 (±52.5) fmol/mg
chemical and proteolytic stability in human plasma [4]: No signs of degradation
Hill coefficient n [5]: 1.52

Structure (SMILES): COCC[C@@H]1NC(=O)[C@@H]2CSCCC(=O)N3CN(CN(C3)C(=O)CCSC[C@H](NC(=O)CC[C@H](C(=O)O)N3CCN(CC(=O)O)CCN(CC(=O)O)CC3)C(=O)N3CCC[C@H]3C(=O)N[C@@H](Cc3cccc4ccccc34)C(=O)N[C@H](CC(=O)O)C(=O)N2)C(=O)CCSC[C@@H](C(N)=O)NC(=O)[C@H](Cc2c[nH]c3ccccc23)NC(=O)[C@@H]2C[C@@H](O)CN2C(=O)[C@@H]2CCCN2C(=O)[C@H]([C@@H](C)O)NC(=O)[C@H](CO)NC(=O)[C@H](Cc2c[nH]c3ccccc23)NC(=O)[C@H](CC(=O)O)NC(=O)[C@H](CCCCNC(=N)N)NC1=O [compound 4] (X1-CP[1Nal][dD]C[hSer](Me)[hArg]DWSTP[Hyp]WC-NH2; linker 1-5-15 via TATA)
CHI IAM7.4 [3]: 20.2
Kd (HT-1376 cells; ^64Cu-labeled ligand): 6.06 nM
Kd (HT-1376 cells; ^68Ga-labeled ligand): 13.1 nM
chemical and proteolytic stability in human plasma [4]: No signs of degradation
Hill coefficient n [5]: 1.72

The next lines start with results.

CHI IAM7.4 [3]: 20.6
chemical and proteolytic stability in human plasma [4]: No signs of degradation
Hill coefficient n [5]: 1.30
Structure (SMILES): CCCC[C@@H]1NC(=O)[C@@H]2CSCCC(=O)N3CN(CN(C3)C(=O)CCSC[C@H](NC(=O)CC[C@H](C(=O)O)N3CCN(CC(=O)O)CCN(CC(=O)O)CC3)C(=O)N3CCC[C@H]3C(=O)N[C@@H](Cc3cccc4ccccc34)C(=O)N[C@H](CC(=O)O)C(=O)N2)C(=O)CCSC[C@@H](C(N)=O)NC(=O)[C@H](Cc2c[nH]c3ccccc23)NC(=O)[C@@H]2C[C@@H](O)CN2C(=O)[C@@H]2CCCN2C(=O)[C@H]([C@@H](C)O)NC(=O)[C@H](CO)NC(=O)[C@H](Cc2c[nH]c3ccccc23)NC(=O)[C@H](CC(=O)O)NC(=O)[C@H](CCCCNC(=N)N)NC1=O [3a] (X1-CP[1Nal][dD]C[Nle][hArg]DWSTP[Hyp]WC-NH2; linker 1-5-15 via TATA)

factor less potent than DOTA conjugate 1f ([5]; FA K d ratio): 26 fold
Hill coefficient n [5]: 2.53
Structure (SMILES): CSCC[C@@H]1NC(=O)[C@@H]2CSCCC(=O)N3CN(CN(C3)C(=O)CCSC[C@H](NC(=O)CN3CCN(CC(=O)O)CCN(CC(=O)O)CCN(CC(=O)O)CC3)C(=O)N3CCC[C@H]3C(=O)N[C@@H](Cc3ccc4ccccc4c3)C(=O)N[C@H](CC(=O)O)C(=O)N2)C(=O)CCSC[C@@H](C(=O)O)NC(=O)[C@H](Cc2c[nH]c3ccccc23)NC(=O)[C@@H]2C[C@@H](O)CN2C(=O)[C@@H]2CCCN2C(=O)[C@H]([C@@H](C)O)NC(=O)[C@H](CO)NC(=O)[C@H](Cc2c[nH]c3ccccc23)NC(=O)[C@H](CC(=O)O)NC(=O)[C@H](CCCNC(=N)N)NC1=O [8d, reference compound] ({DOTA}-CP[2Nal][dD]CMRDWSTP[Hyp]WC-OH; linker 1-5-15 via TATA)
Kd (nectin-4): 23.7 nM
Kd (HT-1376 cells; ^68Ga-labeled ligand): 222 nM
B max (fmol/mg) (HT-1376 cells; ^68Ga-labeled ligand): 291 (±77.9) fmol/mg
